Measured values published in patent EP0324130A2, “8-Glycine, 16-X, Des-19-Leucine-Calcitonin” (RORER INTERNATIONAL (OVERSEAS) INC. (a Delaware corporation), priority 1987, dated 1989).
Peptide text beside a SMILES is read from it.

System: serum calcium concentration
Conditions: rat, in vivo, sc
Experimental: Biological Assay of Calcitonin Analogs in Vivo
The biological potency of 8-glycine, 16-alanine des-19-leucine salmon calcitonin was determined by comparing the reduction of serum calcium concentration which followed administration by graded doses of Gly^8, Ala^16, des-Ley^19-SCT and synthetic salmon calcitonin standard. Rats were divided into four groups of seven animals, and each group was assigned at random to a dose of standard or test solution. Low and high doses were chosen from the linear portion of the dose-response curve. For the salmon calcitonin standard, the values were 0.7 and 2.1 ng. peptide/100 g. […] This does approximates 3 and 9 MU/100 g. […] Peptides were given by subcutaneous injection (0.2 ml/100 g. BW) and blood was withdrawn 1 hour later for serum calcium determination. Sera are processed and analyzed within two hours of collection.

SMILES: CC(C)C[C@H](NC(=O)CNC(=O)[C@@H]1CSSC[C@H](N)C(=O)N[C@@H](CO)C(=O)N[C@@H](CC(N)=O)C(=O)N[C@@H](CC(C)C)C(=O)N[C@@H](CO)C(=O)N[C@@H]([C@@H](C)O)C(=O)N1)C(=O)NCC(=O)N[C@@H](CCCCN)C(=O)N[C@@H](CC(C)C)C(=O)N[C@@H](CO)C(=O)N[C@@H](CCC(N)=O)C(=O)N[C@@H](CCC(=O)O)C(=O)N[C@@H](C)C(=O)N[C@@H](Cc1c[nH]cn1)C(=O)N[C@@H](CCCCN)C(=O)N[C@@H](CCC(N)=O)C(=O)N[C@H](C(=O)N[C@@H](Cc1ccc(O)cc1)C(=O)N1CCC[C@H]1C(=O)N[C@@H](CCCNC(=N)N)C(=O)N[C@H](C(=O)N[C@@H](CC(N)=O)C(=O)N[C@H](C(=O)NCC(=O)N[C@@H](CO)C(=O)NCC(=O)N[C@H](C(=O)N1CCC[C@H]1C(N)=O)[C@@H](C)O)[C@@H](C)O)[C@@H](C)O)[C@@H](C)O [Gly^8, Ala^16, des-Leu'^9-SCT, [8-Glycine, 16-Alanine, des-19-Leucine] salmon calcitonin] (HELM PEPTIDE1{C.S.N.L.S.T.C.G.L.G.K.L.S.Q.E.A.H.K.Q.T.Y.P.R.T.N.T.G.S.G.T.P.[am]}$PEPTIDE1,PEPTIDE1,1:R3-7:R3$$$V2.0)
- biological potency: 2,500 IU/mg
